Reference: US12134610B2, “Somatostatin subtype-2 receptor (SST2R) targeted therapeutics and uses thereof” (priority 2022, dated 2024)

How the values were obtained:
Type in all cases: cell-based
[1] = target: T1, human somatostatin receptor subtype 2 (Homo sapiens, UniProt P30874); assay: Functional cAMP assay for SSTR2 agonists (HTRF) in CHO-K1 cells; conditions: CHO-K1 cells stably expressing human SST2, 20 min; read-out: hSST2 cAMP Avg EC50
T1 construct: expressed in transfected cells
Summary of the method: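 Agonism scored as loss of NKH477 (1.6 μM)-driven cAMP, with IBMX present, after 20 min, 37° C. exposure of stably transfected CHO-K1 cells to compound dilutions (typically 0-10,000 nM). Lysates read by time-resolved FRET; cAMP interpolated from standard curve and EC50 derived.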

[2] = system: NCI-H524 (ATCC) human small cell lung cancer cells; conditions: 2 h
Summary of the method: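 CellTiter-Glo luminescence after a 2 h SMDC pulse (top dose 1 uM, 2-fold dilutions, 11 points), medium wash, then 70 h recovery. Cells were seeded at 5,000/well and dosed 24 h later. % inhibition vs control gave IC50 via four-parameter fit.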

[3] = target: T2, SST2 (Homo sapiens, UniProt P30874); assay: PathHunter CHO-K1 SST2 internalization assay; conditions: PathHunter CHO-K1 SST2, 90 min; read-out: Internalization EC50
T2 construct: host or cells: PathHunter CHO-K1 SST2 cells
Summary of the method: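 IC50 comes from four-parameter curves on background-corrected duplicates of Beta-Glo luminescence, read after 60 min at room temperature in the dark. Before that, CHO-K1 SST2 internalization cells (48 h post-seeding) received SMDC as eleven threefold dilutions, 10 uM highest final, for 90 min at 37 C.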

T2 sequence (P30874 whole entry): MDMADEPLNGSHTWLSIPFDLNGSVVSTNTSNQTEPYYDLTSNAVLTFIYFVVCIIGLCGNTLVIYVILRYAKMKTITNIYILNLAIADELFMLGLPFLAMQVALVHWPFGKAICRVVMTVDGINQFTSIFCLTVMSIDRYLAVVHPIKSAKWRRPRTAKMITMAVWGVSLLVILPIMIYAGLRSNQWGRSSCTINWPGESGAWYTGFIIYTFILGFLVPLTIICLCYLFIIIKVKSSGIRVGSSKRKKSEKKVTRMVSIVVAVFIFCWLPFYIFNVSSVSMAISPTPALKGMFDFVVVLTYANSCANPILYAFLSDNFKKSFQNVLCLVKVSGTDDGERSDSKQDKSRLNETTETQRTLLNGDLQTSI
T1 sequence (P30874 whole entry): as above

Row | SMILES | EC50 [1] [nM] | EC50 [2] [nM] | EC50 [3] [nM]
1 | CC[C@H](C)[C@@H]([C@@H](CC(=O)N1CCC[C@H]1[C@H](OC)[C@@H](C)C(=O)N[C@H](C)[C@@H](O)c1ccccc1)OC)N(C)C(=O)[C@@H](NC(=O)[C@H](C(C)C)N(C)C(=O)OCc1ccc(NC(=O)[C@H](CCCNC(N)=O)NC(=O)[C@@H](NC(=O)CCOCCNC(=O)CN2CCN(CC(=O)O)CCN(CC(=O)NCCOCCOCCOCCOCCC(=O)NCCNc3ncc(-c4cc(C)cc(F)c4)c(N4CCC(N)CC4)c3-c3nc4ccc(Cl)cc4[nH]3)CC2)C(C)C)cc1)C(C)C [Compound 43] | 0.29 | 82.6 | 18.1
2 | CC[C@@H](C)[C@H]([C@H](CC(=O)N1CCC[C@@H]1[C@@H](OC)[C@H](C)C(=O)N[C@@H](C)[C@H](O)c1ccccc1)OC)N(C)C(=O)C(NC(=O)[C@@H](C(C)C)N(C)C(=O)OCc1ccc(NC(=O)[C@H](CCCNC(N)=O)NC(=O)[C@@H](NC(=O)CCOCCNC(=O)[C@H](CS(=O)(=O)O)NC(=O)CCOCCOCCOCCOCCC(=O)NCCNc2ncc(-c3cc(C)cc(F)c3)c(N3CCC(N)CC3)c2-c2nc3ccc(Cl)cc3[nH]2)C(C)C)cc1)C(C)C (stereo partly drawn) [Compound 44] | 0.089 | 101 | 17.2
3 | CC[C@H](C)[C@@H]([C@@H](CC(=O)N1CCC[C@H]1[C@H](OC)[C@@H](C)C(=O)N[C@H](C)[C@@H](O)c1ccccc1)OC)N(C)C(=O)[C@@H](NC(=O)[C@H](C(C)C)N(C)C(=O)OCc1ccc(NC(=O)[C@H](CCCNC(N)=O)NC(=O)[C@@H](NC(=O)[C@H](CS(=O)(=O)O)NC(=O)CCOCCOCCOCCOCCC(=O)NCCNc2ncc(-c3cc(C)cc(F)c3)c(N3CCC(N)CC3)c2-c2nc3ccc(Cl)cc3[nH]2)C(C)C)cc1)C(C)C [Compound 45] | 0.12 | 32 | 21
4 | CC[C@H](C)[C@@H]([C@@H](CC(=O)N1CCC[C@H]1[C@H](OC)[C@@H](C)C(=O)N[C@H](C)[C@@H](O)c1ccccc1)OC)N(C)C(=O)[C@@H](NC(=O)[C@H](C(C)C)N(C)C(=O)OCc1ccc(NC(=O)[C@H](CCCNC(N)=O)NC(=O)[C@@H](NC(=O)CN2CCN(CC(=O)NCCOCCOCCOCCOCCC(=O)NCCNc3ncc(-c4cc(C)cc(F)c4)c(N4CCC(N)CC4)c3-c3nc4ccc(Cl)cc4[nH]3)CCN(CC(=O)NCCOCCOCCOCCOCCC(=O)NCCNc3ncc(-c4cc(C)cc(F)c4)c(N4CCC(N)CC4)c3-c3nc4ccc(Cl)cc4[nH]3)CC2)C(C)C)cc1)C(C)C [Compound 46] | 0.54 | 85.9 | 26.1
5 | CC[C@H](C)[C@@H]([C@@H](CC(=O)N1CCC[C@H]1[C@H](OC)[C@@H](C)C(=O)N[C@H](C)[C@@H](O)c1ccccc1)OC)N(C)C(=O)[C@@H](NC(=O)[C@H](C(C)C)N(C)C(=O)OCc1ccc(NC(=O)[C@H](CCCNC(N)=O)NC(=O)[C@@H](NC(=O)[C@H](CCC(=O)O)NC(=O)CCOCCOCCOCCOCCC(=O)NCCNc2ncc(-c3cc(C)cc(F)c3)c(N3CCC(N)CC3)c2-c2nc3ccc(Cl)cc3[nH]2)C(C)C)cc1C(=O)NCCN)C(C)C [Compound 47] | 0.091 | 18.7 | 9
6 | CC[C@H](C)[C@@H]([C@@H](CC(=O)N1CCC[C@H]1[C@H](OC)[C@@H](C)C(=O)N[C@H](C)[C@@H](O)c1ccccc1)OC)N(C)C(=O)[C@@H](NC(=O)[C@H](C(C)C)N(C)C(=O)OCc1ccc(NC(=O)[C@H](CCCNC(N)=O)NC(=O)[C@@H](NC(=O)CCOCCOCCOCCOCCC(=O)NCCNc2ncc(-c3cc(C)cc(F)c3)c(N3CCC(N)CC3)c2-c2nc3ccc(Cl)cc3[nH]2)C(C)C)cc1C(=O)NCCNC(=O)CCOCCOCCOCCOCCN)C(C)C [Compound 48] | 0.26 | 12.4 | 6.9
7 | CC[C@H](C)[C@@H]([C@@H](CC(=O)N1CCC[C@H]1[C@H](OC)[C@@H](C)C(=O)N[C@H](C)[C@@H](O)c1ccccc1)OC)N(C)C(=O)[C@@H](NC(=O)[C@H](C(C)C)N(C)C(=O)OCc1ccc(NC(=O)[C@H](CCCNC(N)=O)NC(=O)[C@@H](NC(=O)CCOCCOCCOCCOCCC(=O)NCCNc2ncc(-c3cc(C)cc(F)c3)c(N3CCC(N)CC3)c2-c2nc3ccc(Cl)cc3[nH]2)C(C)C)cc1C(=O)NCCN)C(C)C [Compound 50] | 0.15 | 5.8 | 7.7
8 | CC[C@H](C)[C@@H]([C@@H](CC(=O)N1CCC[C@H]1[C@H](OC)[C@@H](C)C(=O)N[C@H](C)[C@@H](O)c1ccccc1)OC)N(C)C(=O)[C@@H](NC(=O)[C@H](C(C)C)N(C)C(=O)OCc1ccc(NC(=O)[C@H](CCCNC(N)=O)NC(=O)[C@@H](NC(=O)[C@H](CCC(=O)O)NC(=O)CCOCCC(=O)NCCNc2ncc(-c3cc(C)cc(F)c3)c(N3CCC(N)CC3)c2-c2nc3ccc(Cl)cc3[nH]2)C(C)C)cc1C(=O)NC)C(C)C [Compound 51] | 0.22 | 130 | 6.3
9 | CC[C@H](C)[C@@H]([C@@H](CC(=O)N1CCC[C@H]1[C@H](OC)[C@@H](C)C(=O)N[C@H](C)[C@@H](O)c1ccccc1)OC)N(C)C(=O)[C@@H](NC(=O)[C@H](C(C)C)N(C)C(=O)OCc1ccc(NC(=O)[C@H](CCCNC(N)=O)NC(=O)[C@@H](NC(=O)[C@H](CCC(=O)O)NC(=O)CCOCCOCCOCCOCCC(=O)NCCNc2ncc(-c3cc(C)cc(F)c3)c(N3CCC(N)CC3)c2-c2nc3ccc(Cl)cc3[nH]2)C(C)C)cc1)C(C)C [Compound 52] | 0.24 | 48 | 9.1
10 | CC[C@H](C)[C@@H]([C@@H](CC(=O)N1CCC[C@H]1[C@H](OC)[C@@H](C)C(=O)N[C@H](C)[C@@H](O)c1ccccc1)OC)N(C)C(=O)[C@@H](NC(=O)[C@H](C(C)C)N(C)C(=O)OCc1ccc(NC(=O)[C@H](CCCNC(N)=O)NC(=O)[C@@H](NC(=O)[C@H](CCC(=O)O)NC(=O)CCOCCOCCOCCOCCC(=O)NCCNc2ncc(-c3cc(C)cc(F)c3)c(N3CCC(N)CC3)c2-c2nc3ccc(Cl)cc3[nH]2)C(C)C)cc1C(=O)NC)C(C)C [Compound 53] | 0.16 | 100 | 13
11 | CC[C@H](C)[C@@H]([C@@H](CC(=O)N1CCC[C@H]1[C@H](OC)[C@@H](C)C(=O)N[C@H](C)[C@@H](O)c1ccccc1)OC)N(C)C(=O)[C@@H](NC(=O)[C@H](C(C)C)N(C)C(=O)OCc1ccc(NC(=O)[C@H](CCCNC(N)=O)NC(=O)[C@@H](NC(=O)[C@H](CCC(N)=O)NC(=O)CCOCCC(=O)NCCNc2ncc(-c3cc(C)cc(F)c3)c(N3CCC(N)CC3)c2-c2nc3ccc(Cl)cc3[nH]2)C(C)C)cc1C(=O)NC)C(C)C [Compound 54] | 0.17 | 17 | 10
12 | CC[C@H](C)[C@@H]([C@@H](CC(=O)N1CCC[C@H]1[C@H](OC)[C@@H](C)C(=O)N[C@H](C)[C@@H](O)c1ccccc1)OC)N(C)C(=O)[C@@H](NC(=O)[C@H](C(C)C)N(C)C(=O)OCc1ccc(NC(=O)[C@H](CCCNC(N)=O)NC(=O)[C@@H](NC(=O)CN2CCN(CC(=O)O)CCN(CC(=O)NCCOCCC(=O)NCCNc3ncc(-c4cc(C)cc(F)c4)c(N4CCC(N)CC4)c3-c3nc4ccc(Cl)cc4[nH]3)CC2)C(C)C)cc1)C(C)C [Compound 55] | 0.17 | 35 | 8.3
